Assay [1] addresses Interleukin-1 receptor-associated kinase 1 (Homo sapiens) (UniProt P51617). Description: Selectivity interaction (ActivX KiNativ screen (kinase selectivity in THP-1 cell lysates)) EUB0000639a IRAK1. In kind it is subcellular. Conditions: lysate.
The test system of assay [2] is Mast/stem cell growth factor receptor Kit (Homo sapiens), P10721 [V559D,T670I]. Description: (§1) Selectivity interaction (KinomeScan (DiscoverX)) EUB0000045b KIT.
Assay [3] deals with Mast/stem cell growth factor receptor Kit (Homo sapiens), P10721 [A829P]. Described as §1.
Mast/stem cell growth factor receptor Kit (Homo sapiens), P10721 [A829P], sequence (P10721 whole entry A829P): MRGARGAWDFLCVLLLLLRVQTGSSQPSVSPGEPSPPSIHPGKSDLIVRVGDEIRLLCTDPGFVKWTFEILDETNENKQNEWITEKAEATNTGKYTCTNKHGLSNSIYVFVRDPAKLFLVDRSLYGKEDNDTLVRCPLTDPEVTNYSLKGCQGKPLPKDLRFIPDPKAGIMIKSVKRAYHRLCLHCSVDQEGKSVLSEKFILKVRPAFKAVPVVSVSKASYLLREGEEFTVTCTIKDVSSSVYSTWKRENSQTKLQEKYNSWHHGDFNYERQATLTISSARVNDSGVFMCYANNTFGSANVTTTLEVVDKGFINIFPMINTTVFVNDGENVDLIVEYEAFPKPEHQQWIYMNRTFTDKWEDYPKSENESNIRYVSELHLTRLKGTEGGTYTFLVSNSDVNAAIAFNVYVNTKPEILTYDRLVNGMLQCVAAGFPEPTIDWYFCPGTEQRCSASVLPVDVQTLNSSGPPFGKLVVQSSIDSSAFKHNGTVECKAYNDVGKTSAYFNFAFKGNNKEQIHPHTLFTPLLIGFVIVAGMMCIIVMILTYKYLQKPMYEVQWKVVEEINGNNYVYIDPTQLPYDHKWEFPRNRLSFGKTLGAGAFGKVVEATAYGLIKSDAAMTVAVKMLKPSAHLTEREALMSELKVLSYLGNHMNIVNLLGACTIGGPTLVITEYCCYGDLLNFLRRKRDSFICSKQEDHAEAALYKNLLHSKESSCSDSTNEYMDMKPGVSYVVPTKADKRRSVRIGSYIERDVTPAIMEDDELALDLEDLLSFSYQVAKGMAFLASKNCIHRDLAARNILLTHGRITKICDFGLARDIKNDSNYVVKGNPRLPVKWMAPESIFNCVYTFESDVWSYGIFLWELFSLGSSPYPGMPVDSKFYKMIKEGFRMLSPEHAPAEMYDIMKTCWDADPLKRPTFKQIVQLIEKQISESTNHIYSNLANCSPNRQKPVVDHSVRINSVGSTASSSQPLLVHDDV
The test system of assay [4] is Mast/stem cell growth factor receptor Kit (Homo sapiens), P10721 [V559D]. Described as §1.
Mast/stem cell growth factor receptor Kit (Homo sapiens), P10721 [V559D], sequence (P10721 whole entry V559D): as the sequence (P10721 whole entry A829P) above, with V559D, P829A counted along it
Assay [5] has as its system Mast/stem cell growth factor receptor Kit (Homo sapiens), P10721 [V559D,V654A]. The description is as §1.
The test system of assay [6] is Mast/stem cell growth factor receptor Kit (Homo sapiens), P10721 [D816H]. Described as §1.
Mast/stem cell growth factor receptor Kit (Homo sapiens), P10721 [D816H], sequence (P10721 whole entry D816H): as the sequence (P10721 whole entry A829P) above, with D816H, P829A counted along it
The target of assay [7] is Mast/stem cell growth factor receptor Kit (Homo sapiens, UniProt P10721). Described as §1.
Mast/stem cell growth factor receptor Kit, sequence (P10721 whole entry): as the sequence (P10721 whole entry A829P) above, with P829A counted along it
In assay [8] the test system is Mast/stem cell growth factor receptor Kit (Homo sapiens), P10721 [D816V]. The description is as §1.
Mast/stem cell growth factor receptor Kit (Homo sapiens), P10721 [D816V], sequence (P10721 whole entry D816V): as the sequence (P10721 whole entry A829P) above, with D816V, P829A counted along it
The subject of assay [9] is Mast/stem cell growth factor receptor Kit (Homo sapiens), P10721 [L576P]. Described as §1.
Assay [10] concerns the target T1, Phosphatidylinositol 3-kinase C2 domain-containing subunit gamma (Homo sapiens) (UniProt O75747).
T1 sequence (whole entry): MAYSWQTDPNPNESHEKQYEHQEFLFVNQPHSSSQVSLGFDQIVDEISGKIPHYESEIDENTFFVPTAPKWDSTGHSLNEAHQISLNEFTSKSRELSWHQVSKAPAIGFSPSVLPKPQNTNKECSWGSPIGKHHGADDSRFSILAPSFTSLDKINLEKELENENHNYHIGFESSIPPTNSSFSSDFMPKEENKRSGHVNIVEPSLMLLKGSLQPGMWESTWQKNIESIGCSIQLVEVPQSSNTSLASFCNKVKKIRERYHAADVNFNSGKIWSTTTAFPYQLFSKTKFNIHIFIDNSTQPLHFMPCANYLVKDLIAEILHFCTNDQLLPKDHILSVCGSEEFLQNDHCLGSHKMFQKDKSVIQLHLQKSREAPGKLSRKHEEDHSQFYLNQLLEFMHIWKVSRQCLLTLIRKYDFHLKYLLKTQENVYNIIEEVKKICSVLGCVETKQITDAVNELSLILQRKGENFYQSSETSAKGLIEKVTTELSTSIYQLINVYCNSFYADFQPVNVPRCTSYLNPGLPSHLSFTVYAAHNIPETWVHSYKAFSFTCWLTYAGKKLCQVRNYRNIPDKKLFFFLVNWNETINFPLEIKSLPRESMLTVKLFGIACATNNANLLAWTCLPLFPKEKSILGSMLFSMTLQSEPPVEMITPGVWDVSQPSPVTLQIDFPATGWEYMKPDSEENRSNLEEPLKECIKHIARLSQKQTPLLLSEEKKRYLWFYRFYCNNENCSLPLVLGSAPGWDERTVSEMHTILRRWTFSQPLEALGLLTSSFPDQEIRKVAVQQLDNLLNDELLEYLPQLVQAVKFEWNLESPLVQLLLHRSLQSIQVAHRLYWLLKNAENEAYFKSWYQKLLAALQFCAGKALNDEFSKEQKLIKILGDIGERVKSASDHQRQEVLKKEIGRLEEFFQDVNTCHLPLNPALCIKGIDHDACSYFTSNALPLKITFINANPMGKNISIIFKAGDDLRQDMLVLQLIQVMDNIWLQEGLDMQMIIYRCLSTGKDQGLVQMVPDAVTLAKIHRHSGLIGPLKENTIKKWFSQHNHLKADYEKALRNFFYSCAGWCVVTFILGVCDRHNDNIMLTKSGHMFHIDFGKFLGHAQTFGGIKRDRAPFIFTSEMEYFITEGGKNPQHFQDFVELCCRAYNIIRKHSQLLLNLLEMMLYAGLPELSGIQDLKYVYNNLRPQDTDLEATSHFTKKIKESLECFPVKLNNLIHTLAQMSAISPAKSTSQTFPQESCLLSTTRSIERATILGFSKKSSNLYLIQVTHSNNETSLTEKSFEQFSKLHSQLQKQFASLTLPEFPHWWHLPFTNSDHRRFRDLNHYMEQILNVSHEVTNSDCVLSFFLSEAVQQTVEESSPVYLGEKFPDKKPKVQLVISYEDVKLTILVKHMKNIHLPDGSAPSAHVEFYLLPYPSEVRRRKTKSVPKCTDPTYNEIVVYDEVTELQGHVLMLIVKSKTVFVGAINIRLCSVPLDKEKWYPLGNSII
As to the kind of experiment: Selectivity interaction (Ambit KINOMEscan and KiNATiv profiling in Jurkat cells) EUB0000090b PIK3C2G. Conditions: at 1 µM. Type of assay: cell-based.

Assay [11] deals with Interferon-induced, double-stranded RNA-activated protein kinase (Homo sapiens) (UniProt P19525). As to the kind of experiment: Selectivity interaction (KinomeScan (DiscoverX)) EUB0001049a EIF2AK2. As to conditions: at 1 µM.
Interferon-induced, double-stranded RNA-activated protein kinase (Homo sapiens), sequence (P19525 whole entry): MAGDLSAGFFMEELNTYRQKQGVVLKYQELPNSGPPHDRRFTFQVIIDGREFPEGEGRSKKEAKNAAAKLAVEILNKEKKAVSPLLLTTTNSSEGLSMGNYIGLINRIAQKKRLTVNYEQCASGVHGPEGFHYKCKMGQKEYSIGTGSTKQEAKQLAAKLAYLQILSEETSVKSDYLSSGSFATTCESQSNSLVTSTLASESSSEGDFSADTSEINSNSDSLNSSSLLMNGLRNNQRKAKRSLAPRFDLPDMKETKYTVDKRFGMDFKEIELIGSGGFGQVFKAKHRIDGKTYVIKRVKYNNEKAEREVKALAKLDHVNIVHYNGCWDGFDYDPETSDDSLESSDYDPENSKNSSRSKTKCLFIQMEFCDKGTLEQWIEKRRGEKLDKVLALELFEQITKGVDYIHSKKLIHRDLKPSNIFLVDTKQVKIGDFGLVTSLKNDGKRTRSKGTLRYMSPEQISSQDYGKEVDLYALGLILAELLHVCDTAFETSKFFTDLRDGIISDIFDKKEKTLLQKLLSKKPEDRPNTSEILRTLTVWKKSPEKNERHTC
In assay [12] the target is Serine/threonine-protein kinase PAK 6 (Homo sapiens) (UniProt Q9NQU5). As to the kind of experiment: Selectivity interaction (Upstate Kinase Profiler service (Millipore)) EUB0000056c PAK6. Conditions: at 1 µM.
Serine/threonine-protein kinase PAK 6 (Homo sapiens), sequence (Q9NQU5 whole entry, looked up): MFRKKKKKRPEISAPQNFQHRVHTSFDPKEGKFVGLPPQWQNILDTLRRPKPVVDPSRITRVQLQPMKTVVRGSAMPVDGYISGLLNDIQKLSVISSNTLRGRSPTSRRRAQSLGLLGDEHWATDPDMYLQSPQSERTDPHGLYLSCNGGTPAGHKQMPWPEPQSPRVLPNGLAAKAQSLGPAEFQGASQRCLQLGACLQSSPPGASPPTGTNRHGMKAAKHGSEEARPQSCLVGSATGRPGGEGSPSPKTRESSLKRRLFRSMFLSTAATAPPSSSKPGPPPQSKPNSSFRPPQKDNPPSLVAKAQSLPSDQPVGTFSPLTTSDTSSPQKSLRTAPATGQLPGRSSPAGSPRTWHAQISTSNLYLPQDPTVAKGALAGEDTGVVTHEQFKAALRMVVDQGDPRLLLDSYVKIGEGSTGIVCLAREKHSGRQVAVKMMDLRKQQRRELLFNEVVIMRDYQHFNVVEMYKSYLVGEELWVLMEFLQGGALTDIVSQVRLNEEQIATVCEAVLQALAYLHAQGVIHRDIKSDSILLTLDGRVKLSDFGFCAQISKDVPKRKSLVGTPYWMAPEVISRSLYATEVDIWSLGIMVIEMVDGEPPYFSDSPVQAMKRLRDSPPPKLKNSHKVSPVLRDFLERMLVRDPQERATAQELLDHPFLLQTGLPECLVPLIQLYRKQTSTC
Assay [13] addresses Cyclin-dependent kinase 7 (Homo sapiens, UniProt P50613). Description: Selectivity interaction (Kinase panel (KiNativ target engagement assay in Jurkat cells)) EUB0001635a CDK7. Type of assay: cell-based. Conditions: Selectivity number of off-targets 0.0, Selectivity number of targets 233.0, Source Knowledge https://www.sciencedirect.com/science/article/pii/S2451945619300674?via%3Dihub, at 1 µM.

These results are taken from ChEMBL document CHEMBL5465560, “Selectivity Literature for EUbOPEN Chemogenomic Library” (2024).

Interleukin-1 receptor-associated kinase 1 (Homo sapiens), sequence (P51617 whole entry, looked up): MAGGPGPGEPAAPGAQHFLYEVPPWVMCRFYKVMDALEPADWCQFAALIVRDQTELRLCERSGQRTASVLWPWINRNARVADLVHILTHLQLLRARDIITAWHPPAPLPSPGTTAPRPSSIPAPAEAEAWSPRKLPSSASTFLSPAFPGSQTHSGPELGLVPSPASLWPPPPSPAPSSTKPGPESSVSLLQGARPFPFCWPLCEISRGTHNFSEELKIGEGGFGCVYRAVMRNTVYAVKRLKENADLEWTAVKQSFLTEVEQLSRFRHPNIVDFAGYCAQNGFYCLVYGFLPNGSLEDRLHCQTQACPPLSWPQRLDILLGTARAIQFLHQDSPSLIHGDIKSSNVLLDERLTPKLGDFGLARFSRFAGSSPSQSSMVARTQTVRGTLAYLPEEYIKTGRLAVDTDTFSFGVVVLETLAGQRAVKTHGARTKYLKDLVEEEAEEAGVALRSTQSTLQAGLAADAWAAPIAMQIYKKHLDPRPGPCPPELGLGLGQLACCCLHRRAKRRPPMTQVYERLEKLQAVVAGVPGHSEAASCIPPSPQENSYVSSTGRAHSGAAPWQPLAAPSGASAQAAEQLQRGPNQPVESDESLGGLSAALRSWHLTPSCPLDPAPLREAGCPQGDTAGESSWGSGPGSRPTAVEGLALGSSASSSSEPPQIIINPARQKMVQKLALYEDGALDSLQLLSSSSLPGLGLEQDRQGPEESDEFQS
Mast/stem cell growth factor receptor Kit (Homo sapiens), P10721 [V559D,T670I], sequence (P10721 whole entry V559D/T670I): as the sequence (P10721 whole entry A829P) above, with V559D, T670I, P829A counted along it
Mast/stem cell growth factor receptor Kit (Homo sapiens), P10721 [V559D,V654A], sequence (P10721 whole entry V559D/V654A): as the sequence (P10721 whole entry A829P) above, with V559D, V654A, P829A counted along it
Mast/stem cell growth factor receptor Kit (Homo sapiens), P10721 [L576P], sequence (P10721 whole entry L576P, the tested form may be a part): as the sequence (P10721 whole entry A829P) above, with L576P, P829A counted along it
Cyclin-dependent kinase 7, sequence (P50613 whole entry): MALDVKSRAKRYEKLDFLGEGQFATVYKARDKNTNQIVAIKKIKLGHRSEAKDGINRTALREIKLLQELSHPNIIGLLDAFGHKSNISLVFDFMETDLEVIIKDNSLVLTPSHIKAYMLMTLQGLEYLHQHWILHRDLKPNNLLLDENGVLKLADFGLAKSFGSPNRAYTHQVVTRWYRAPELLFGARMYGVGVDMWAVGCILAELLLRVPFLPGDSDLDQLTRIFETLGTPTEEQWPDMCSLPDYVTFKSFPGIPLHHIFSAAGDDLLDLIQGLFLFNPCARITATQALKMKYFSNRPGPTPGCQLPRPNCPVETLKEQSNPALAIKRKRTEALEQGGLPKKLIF

In the case of `CC[C@@H]1[C@H](F)C(=O)N[C@@H]1COc1nccc2cc(C(N)=O)c(OC)cc12` [ZIMLOVISERTIB], the % of inhibition was found to be 2.3% in assay [1] (at 0.01 µM); 8.5% in assay [1] (at 0.04 µM); 2.2% in assay [1] (at 0.2 µM); 19.8% in [1] (at 1 µM); 60.7% in [1] (at 5 µM).
Take `C=CC(=O)Nc1cc(-n2c(=O)ccc3cnc4ccc(-c5ccc(NS(C)(=O)=O)cc5)cc4c32)ccc1C`: the % of control turned out to be 100% in assay [2] (at 1 µM); 91% in [2] (at 10 µM); 74% in assay [3] (at 1 µM); 81% in assay [3] (at 10 µM); 87% in assay [4] (at 1 µM); 88% in [4] (at 10 µM). In addition, the % of control in [5] (at 1 µM) was found to be 100%; in assay [5] (at 10 µM), 100%; in [6] (at 1 µM) it was 99%; in assay [6] (at 10 µM), 100%; in assay [7] (at 1 µM), 89%; in assay [7] (at 10 µM) it was 89%. Also, the % of control is 69% in [8] (at 1 µM), 73% in assay [8] (at 10 µM), 100% in assay [9] (at 1 µM) and 83% in assay [9] (at 10 µM).
In assay [10], `CN(C)C/C=C/C(=O)Nc1ccc(C(=O)N2CCCC(Nc3ncc(Cl)c(-c4c[nH]c5ccccc45)n3)C2)cc1` (stereo not given) displayed a % of control of 100%.
Take `COc1cc(Nc2nc(C)cc(-c3cnn4nc(OC)ccc34)n2)cc(C(F)(F)F)c1`: the % of control in assay [11] is 100%.
In assay [12], `Cc1ccc(-c2ccc3c(ccc4sc5c(c43)NC[C@@H](C)NC5=O)n2)cn1` had a % of inhibition of 9%.
Regarding `C=CC(=O)Nc1ccc(C(=O)Nc2[nH]nc3c2CN(C(=O)N[C@H](CN(C)C)c2ccccc2)C3(C)C)cc1`, the % of engagement in assay [13] is 93.3%.
